This assay has as its target T1, HIV-1 protease (Human immunodeficiency virus type 1 group M subtype B, UniProt P04585).
T1 construct: The enzyme HIV-1 protease exists as a dimer
The assay can be described thus: Isothermal denaturation of Oregon Green-labelled HIV-1 protease monitored by fluorescence correlation spectroscopy (FCS). It counts as binding. On the procedure:
HIV-1 Protease. HIV-1 Protease was extensively dialyzed against 0.1 M sodium phosphate, 0.05% NaN3, pH 6.5, at 5° C., using a Pierce Slide-A-Lyzer™ (2,000 MWCO). The protease concentration was approximately 1 mg/mL. There was a slight turbidity after dialysis. Protease recovery was assumed to be 100% (53 nanomoles in 1.1 mL).
A freshly prepared solution of Oregon Green™ Iodoacetamide (Molecular Probes Inc., Cat. No. O-6010; approximately 10 mM in DMSO) was added at zero and 5 hours of incubation to achieve at each time a 3-fold molar ratio of Oregon Green™ to protease. At approximately 8 hours another addition of a 4-fold molar excess was made. After each addition the solution was gently but thoroughly mixed. Incubations were without agitation at 5° C. and continued for 16 hours after the last addition.
The resulting clear solution was chromatographed over a Bio-Gel P-6 Desalting Gel™ column (0.9 cm×25 cm) using 50% volume/volume (v/v) glacial acetic acid/distilled-water as the eluant. […]
The solution of conjugated protease was 0.2 micron filtered and evaluated for Oregon Green™ concentration by extinction and for protease concentration by amino acid analysis. Spectrophotometric results determined an Oregon Green™ concentration of 1.94 μM. […]
Microfuge tubes containing 1.5 mL buffer were placed in a pre-equilibrated 48° C. water bath and the temperature was monitored with a telethermometer. […]
This material was diluted to 10 nM in a 2.0 mL teflon chamber already located on the microscope stage containing the same buffer at room temperature. […] Binning combines the fluorescence measurements from contiguous time-periods. […]
The autocorrelated data were analyzed with a nonlinear least squares (NLLSF) fitting program based on that disclosed in Yamaoka et. al., J. Pharmacobio Dyn., 4, 8-15 (1981). […]
In these experiments, since both native and denatured proteins exist, the calculated results represent an average value for the amount of material in the two states. […] The data were analyzed with weighting values of either zero or single inverse weighting. […]

[1] abbreviates: HIV-1 protease incubated with compound at 48° C. for 24 minutes, single inverse weighting, FIG. 8B.

Molecules are shown by their SMILES.

Consider `CCC[C@@]1(CCc2ccccc2)CC(O)=C([C@H](CC)c2cccc(NS(=O)(=O)c3ccc(C(F)(F)F)cn3)c2)C(=O)O1` [PNU-140690], for which the “stabilization of HIV-1 protease against isothermal denaturation (change in apparent diffusion coefficient as a function of time)” value (48° C., time points 0 to 60 minutes, with vs without compound, FIG. 9) is “clearly stabilizes the enzyme”. Further, under setting [1], the “G(0) (unimolecular model, autocorrelation curve)” value was 292×10^−3±11.7×10^−3 and the “diffusion coefficient (unimolecular model, autocorrelation curve)” value is on record as 1.33×10^−6±0.09×10^−6.

The values are drawn from patent publication US6582907B1, “Use of fluorescence correlation spectroscopy to identify compounds that bind to target species under isothermal denaturing conditions” (Pharmacia & Upjohn Company, priority 1999, dated 2003).
